Results taken from patent publication US20100291010A1, “NOVEL ESTERS AND COMPOSITIONS AND USES THEREOF” (INNOSPEC LIMITED, priority 2007, published 2010).

From the text: These two sunscreens are difficult to dissolve and keep in solution for use in sunscreen formulations for optimal SPF (Sun-Protection Factors). Higher solvency for a sunscreen ingredient is described as it allows higher concentrations of the sunscreen active ingredient in a formulation. […] The liquid organic sunscreens that are commonly used as octylsalicylate (OS) and octyl-methoxycinnamate (OMC).

COc1ccc(C(=O)c2ccccc2)c(O)c1 [Benzophenone-3, 2 hydroxy-4-methoxybenzophenone]
Solubility in Finester LP (%): 10% | Solubility in Finsolv TN (%): 15%
